Values joined by “and” are separate entries in the source; they are usually repeats but may differ in a detail not shown here. Equal values may be shown once.
Test system: 874868-142-R-J2-PDC complex spheroids, growth % test/control
Experiment: Anticancer human tumor 874868-142-R-J2-PDC patient-derived head and neck squamous carcinoma cell line growth inhibition [CLK]
Conditions: for viability, T/C: stronger effect = lower value
In short: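 Multi-cell-type spheroids combined patient-derived tumor cells with HUVEC endothelial cells and human mesenchymal stem cells. Paired agents were dosed in half-log steps down from about clinical Cmax, or from 10 microM where Cmax was unknown.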

[1] = curve of first compound, second compound 0.0316 µM
[2] = curve of first compound, second compound 0.1 µM
[3] = curve of first compound, second compound 0.316 µM
[4] = curve of first compound, second compound 1 µM
[5] = curve of first compound, second compound 3.16 µM
[6] = curve of first compound, second compound 10 µM
[7] = second compound 0.0316 µM, first compound 0.0316 µM
[8] = second compound 0.0316 µM, first compound 0.1 µM
[9] = second compound 0.0316 µM, first compound 0.316 µM
[10] = second compound 0.0316 µM, first compound 1 µM
[11] = second compound 0.0316 µM, first compound 3.16 µM
[12] = second compound 0.0316 µM, first compound 10 µM
[13] = second compound 0.1 µM, first compound 0.0316 µM
[14] = second compound 0.1 µM, first compound 0.1 µM
[15] = second compound 0.1 µM, first compound 0.316 µM
[16] = second compound 0.1 µM, first compound 1 µM
[17] = second compound 0.1 µM, first compound 3.16 µM
[18] = second compound 0.1 µM, first compound 10 µM
[19] = second compound 0.316 µM, first compound 0.0316 µM
[20] = second compound 0.316 µM, first compound 0.1 µM
[21] = second compound 0.316 µM, first compound 0.316 µM
[22] = second compound 0.316 µM, first compound 1 µM
[23] = second compound 0.316 µM, first compound 3.16 µM
[24] = second compound 0.316 µM, first compound 10 µM
[25] = second compound 1 µM, first compound 0.0316 µM
[26] = second compound 1 µM, first compound 0.1 µM
[27] = second compound 1 µM, first compound 0.316 µM
[28] = second compound 1 µM, first compound 1 µM
[29] = second compound 1 µM, first compound 3.16 µM
[30] = second compound 1 µM, first compound 10 µM
[31] = second compound 3.16 µM, first compound 0.0316 µM
[32] = second compound 3.16 µM, first compound 0.1 µM
[33] = second compound 3.16 µM, first compound 0.316 µM
[34] = second compound 3.16 µM, first compound 1 µM
[35] = second compound 3.16 µM, first compound 3.16 µM
[36] = second compound 3.16 µM, first compound 10 µM
[37] = second compound 10 µM, first compound 0.0316 µM
[38] = second compound 10 µM, first compound 0.1 µM
[39] = second compound 10 µM, first compound 0.316 µM
[40] = second compound 10 µM, first compound 1 µM
[41] = second compound 10 µM, first compound 3.16 µM
[42] = second compound 10 µM, first compound 10 µM
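Also: spheroids exposed to the compounds for 7 days.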
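For viability, T/C in this document: 100% = DMSO vehicle control viability.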

SMILES: O=c1[nH]cc(F)c(=O)[nH]1 + CNC(=O)c1ccc(Nc2nc(OC3CCCC3)c3c(-c4ccc5nc(C)oc5c4)c[nH]c3n2)c(OC)c1
- IC50 [1]: > 10 µM
- IC50 [2]: 2.01 µM
- IC50 [3]: 0.461 µM
- IC50 [4]: < 0.0316 µM
- IC50 [5]: < 0.0316 µM
- IC50 [6]: < 0.0316 µM
- viability, T/C [7]: 81.8%
- viability, T/C [8]: 86%
- viability, T/C [9]: 71.7%
- viability, T/C [10]: 61.1%
- viability, T/C [11]: 54.7%
- viability, T/C [12]: 50.7%
- viability, T/C [13]: 74%
- viability, T/C [14]: 68.9%
- viability, T/C [15]: 75.8%
- viability, T/C [16]: 56.4%
- viability, T/C [17]: 50.2%
- viability, T/C [18]: 41.5%
- viability, T/C [19]: 54%
- viability, T/C [20]: 59.2%
- viability, T/C [21]: 55.9%
- viability, T/C [22]: 34.9%
- viability, T/C [23]: 39.4%
- viability, T/C [24]: 39.2%
- viability, T/C [25]: 43.5%
- viability, T/C [26]: 48.6%
- viability, T/C [27]: 40.1%
- viability, T/C [28]: 29.4%
- viability, T/C [29]: 30.1%
- viability, T/C [30]: 26%
- viability, T/C [31]: 34.9%
- viability, T/C [32]: 39.7%
- viability, T/C [33]: 29%
- viability, T/C [34]: 28.4%
- viability, T/C [35]: 28.7%
- viability, T/C [36]: 31.9%
- viability, T/C [37]: 40.2%
- viability, T/C [38]: 46%
- viability, T/C [39]: 35.9%
- viability, T/C [40]: 23.4%
- viability, T/C [41]: 30.8%
- viability, T/C [42]: 23.2%

SMILES: COc1cccc2c1C(=O)c1c(O)c3c(c(O)c1C2=O)CC(O)(C(=O)CO)CC3OC1CC(N)C(O)C(C)O1 (stereo unspecified)
- viability, T/C (compound 0.0316 µM): 74.8% and 74.3%
- viability, T/C (compound 0.1 µM): 46.2% and 52.2%
- viability, T/C (compound 0.316 µM): 18.9% and 27.4%
- viability, T/C (compound 1 µM): 3.91% and 6.75%
- viability, T/C (compound 3.16 µM): 0.09% and 0.19%
- viability, T/C (compound 10 µM): 0.19% and 0.2%
- IC50 (curve of compound): 0.0868 µM and 0.114 µM

SMILES: COc1cccc2c1C(=O)c1c(O)c3c(c(O)c1C2=O)CC(O)(C(=O)CO)CC3OC1CC(N)C(O)C(C)O1 (stereo unspecified) + CNC(=O)c1ccc(Nc2nc(OC3CCCC3)c3c(-c4ccc5nc(C)oc5c4)c[nH]c3n2)c(OC)c1
- IC50 [1]: 0.0739 µM
- IC50 [2]: 0.0856 µM
- IC50 [3]: 0.0472 µM
- IC50 [4]: < 0.0316 µM
- IC50 [5]: < 0.0316 µM
- IC50 [6]: < 0.0316 µM
- viability, T/C [7]: 65.8%
- viability, T/C [8]: 40.8%
- viability, T/C [9]: 29.2%
- viability, T/C [10]: 1.04%
- viability, T/C [11]: 0.15%
- viability, T/C [12]: 0.15%
- viability, T/C [13]: 66.7%
- viability, T/C [14]: 45.7%
- viability, T/C [15]: 23.5%
- viability, T/C [16]: 0.86%
- viability, T/C [17]: 0.16%
- viability, T/C [18]: 3.76%
- viability, T/C [19]: 55.9%
- viability, T/C [20]: 38.6%
- viability, T/C [21]: 16.9%
- viability, T/C [22]: 0.22%
- viability, T/C [23]: 0.17%
- viability, T/C [24]: 6.83%
- viability, T/C [25]: 32.1%
- viability, T/C [26]: 28.1%
- viability, T/C [27]: 17.6%
- viability, T/C [28]: 0.21%
- viability, T/C [29]: 1.61%
- viability, T/C [30]: 0.16%
- viability, T/C [31]: 33.2%
- viability, T/C [32]: 27.8%
- viability, T/C [33]: 13.3%
- viability, T/C [34]: 0.19%
- viability, T/C [35]: 1.44%
- viability, T/C [36]: 11.7%
- viability, T/C [37]: 28.5%
- viability, T/C [38]: 30.5%
- viability, T/C [39]: 15.8%
- viability, T/C [40]: 0.27%
- viability, T/C [41]: 3.05%
- viability, T/C [42]: 5.77%
